US20250368649A1, “TETRAHYDROPYRIDOPYRIMIDINE PAN-KRAS INHIBITORS” (Mirati Therapeutics, Inc., priority 2022, published 2025)

What was measured:
[1] = system: H460 cells; assay: Inhibition of KRas-mediated phosphorylation of ERK (Cisbio HTRF pERK), H460 cells; format: cell-based; settings: Homo sapiens; for IC50: NCI-H460, 3 h, 3 hr compound incubation, Cisbio pERK HTRF; for inhibition at 0.1 µM: NCI-H460, single point at 100 nM, 3 hrs compound incubation
[2] = target: KRas G12V (Homo sapiens, UniProt P01116, G12V); assay: biochemical; settings: Binding to KRas (IC50 nM) G12V, TR-FRET displacement, KRas G12V
[3] = target: KRas G13D (Homo sapiens, UniProt P01116, G13D); format: binding; settings: single point, 10 nM compound, read-out: Binding to KRas (% inhibition at 10 nM) G13D
[4] = target: KRas G12R (Homo sapiens, UniProt P01116, G12R); assay: biochemical; settings: Binding to KRas (IC50 nM) G12R, TR-FRET displacement, KRas G12R
[5] = target: KRas G12D (Homo sapiens, UniProt P01116, G12D); assay: biochemical; settings: Binding to KRas (IC50 nM) G12D, TR-FRET displacement, KRas G12D
[6] = system: MKN1 cells; assay: Inhibition of KRas-mediated phosphorylation of ERK (Cisbio HTRF pERK), MKN1 cells; format: cell-based; settings: Homo sapiens, MKN-1, 3 hour compound incubation, Cisbio pERK HTRF
Method in brief: (§1)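 On the first day, plate 6,000 cells into each well in RPMI medium with 10% fetal bovine serum.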

[7] = system: PSN1 cells; assay: Inhibition of KRas-mediated phosphorylation of ERK (Cisbio HTRF pERK), PSN1 cells; format: cell-based; settings: Homo sapiens, PSN1, 3 h, 3 hour compound incubation, Cisbio pERK HTRF
Method in brief: as §1

[8] = target: KRas G12S (Homo sapiens, UniProt P01116, G12S); format: binding; settings: single point, 10 nM compound, read-out: Binding to KRas (% inhibition at 10 nM) G12S
[9] = system: H358 cells; assay: Inhibition of KRas-mediated phosphorylation of ERK (Cisbio HTRF pERK), H358 cells; format: cell-based; settings: Homo sapiens; for IC50: NCI-H358, 3 h, 3 hr compound incubation, Cisbio pERK HTRF; for inhibition at 0.1 µM: NCI-H358, single point at 100 nM, 3 hrs compound incubation
[10] = system: H727 cells; assay: Inhibition of KRas-mediated phosphorylation of ERK (Cisbio HTRF pERK), H727 cells; format: cell-based; settings: Homo sapiens; for IC50: NCI-H727, 3 h, 3 hr compound incubation, Cisbio pERK HTRF
[11] = target: KRas G12C (Homo sapiens, UniProt P01116, G12C); format: binding; settings: single point, 10 nM compound, read-out: Binding to KRas (% inhibition at 10 nM) G12C
[12] = system: HCT116 cells; assay: Inhibition of KRas-mediated phosphorylation of ERK (Cisbio HTRF pERK), HCT116 cells; format: cell-based; settings: Homo sapiens; for IC50: HCT-116, 3 h, 3 hr compound incubation, Cisbio pERK HTRF; for inhibition at 0.1 µM: HCT-116, single point at 100 nM, 3 hrs compound incubation
[13] = target: KRas WT (Homo sapiens, UniProt P01116); assay: KRas binding assay (TR-FRET displacement), KRas WT; settings: single point, 10 nM compound
[14] = target: KRas G12A (Homo sapiens, UniProt P01116, G12A); format: binding; settings: single point, 10 nM compound, read-out: Binding to KRas (% inhibition at 10 nM) G12A
[15] = system: A549 cells; assay: Inhibition of KRas-mediated phosphorylation of ERK (Cisbio HTRF pERK), A549 cells; format: cell-based; settings: Homo sapiens; for IC50: A549, 3 h, 3 hr compound incubation, Cisbio pERK HTRF; for inhibition at 0.1 µM: single point at 100 nM, 3 hrs compound incubation
[16] = target: KRas Q61H (Homo sapiens, UniProt P01116, Q61H); assay: KRas binding assay (TR-FRET displacement), KRas Q61H; settings: single point, 10 nM compound
[17] = system: ASPC1 cells; assay: Inhibition of KRas-mediated phosphorylation of ERK (Cisbio HTRF pERK), ASPC1 cells; format: cell-based; settings: Homo sapiens, AsPC-1 cells; for IC50: ASPC1, 3 h, 3 hr compound incubation, Cisbio pERK HTRF

Sequence of KRas G12V (P01116 1-169 isoform P01116-2 G12V): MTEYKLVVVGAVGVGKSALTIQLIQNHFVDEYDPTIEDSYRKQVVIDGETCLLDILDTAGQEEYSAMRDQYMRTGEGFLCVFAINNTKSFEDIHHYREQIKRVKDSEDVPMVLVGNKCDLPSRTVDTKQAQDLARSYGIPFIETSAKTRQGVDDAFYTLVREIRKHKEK
Sequence of KRas WT (P01116 1-169 isoform P01116-2): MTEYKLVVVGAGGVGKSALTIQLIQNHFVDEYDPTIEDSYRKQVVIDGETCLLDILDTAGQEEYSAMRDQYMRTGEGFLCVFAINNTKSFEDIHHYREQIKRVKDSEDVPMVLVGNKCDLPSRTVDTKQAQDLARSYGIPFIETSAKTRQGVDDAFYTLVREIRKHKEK
Sequence of KRas G12A (P01116 1-169 isoform P01116-2 G12A): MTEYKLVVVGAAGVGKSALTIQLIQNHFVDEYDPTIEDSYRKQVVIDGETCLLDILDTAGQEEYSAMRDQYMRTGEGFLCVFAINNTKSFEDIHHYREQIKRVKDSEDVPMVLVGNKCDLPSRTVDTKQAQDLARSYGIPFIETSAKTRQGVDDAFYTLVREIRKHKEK
Sequence of KRas G12S (P01116 1-169 isoform P01116-2 G12S): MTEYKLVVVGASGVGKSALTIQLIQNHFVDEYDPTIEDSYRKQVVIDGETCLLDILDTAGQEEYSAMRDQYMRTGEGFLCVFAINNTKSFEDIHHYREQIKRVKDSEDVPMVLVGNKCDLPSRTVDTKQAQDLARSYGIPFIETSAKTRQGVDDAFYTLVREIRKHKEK
Sequence of KRas G12D (P01116 1-169 isoform P01116-2 G12D): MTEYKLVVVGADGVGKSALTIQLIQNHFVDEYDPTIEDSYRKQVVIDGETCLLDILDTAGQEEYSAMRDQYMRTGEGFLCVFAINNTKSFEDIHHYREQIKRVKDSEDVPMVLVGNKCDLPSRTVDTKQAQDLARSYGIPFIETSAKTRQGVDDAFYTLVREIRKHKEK
Sequence of KRas G12C (P01116 1-169 isoform P01116-2 G12C): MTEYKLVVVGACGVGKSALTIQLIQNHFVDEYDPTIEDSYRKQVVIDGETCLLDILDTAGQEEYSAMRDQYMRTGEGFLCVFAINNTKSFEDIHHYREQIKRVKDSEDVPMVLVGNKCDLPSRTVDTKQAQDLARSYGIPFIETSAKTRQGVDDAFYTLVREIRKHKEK
Sequence of KRas G12R (P01116 1-169 isoform P01116-2 G12R): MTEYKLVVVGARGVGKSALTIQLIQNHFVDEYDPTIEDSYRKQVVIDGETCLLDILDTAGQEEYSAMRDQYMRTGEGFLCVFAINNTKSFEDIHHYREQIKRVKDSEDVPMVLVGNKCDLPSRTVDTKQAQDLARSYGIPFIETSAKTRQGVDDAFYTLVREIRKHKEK
Sequence of KRas Q61H (P01116 1-169 isoform P01116-2 Q61H): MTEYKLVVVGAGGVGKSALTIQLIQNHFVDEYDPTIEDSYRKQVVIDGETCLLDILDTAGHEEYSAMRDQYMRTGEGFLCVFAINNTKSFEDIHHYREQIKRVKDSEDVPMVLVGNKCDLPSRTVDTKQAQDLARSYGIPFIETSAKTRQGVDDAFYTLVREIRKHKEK
Sequence of KRas G13D (P01116 1-169 isoform P01116-2 G13D): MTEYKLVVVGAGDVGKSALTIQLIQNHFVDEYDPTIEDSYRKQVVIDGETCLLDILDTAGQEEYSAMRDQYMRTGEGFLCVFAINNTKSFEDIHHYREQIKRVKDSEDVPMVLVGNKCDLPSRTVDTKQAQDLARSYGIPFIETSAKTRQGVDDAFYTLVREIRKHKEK

Row | IC50 [1] [nM] | IC50 [2] [nM] | inhibition at 0.01 µM [3] [%] | IC50 [4] [nM] | IC50 [5] [nM] | IC50 [6] [nM] | IC50 [7] [nM] | inhibition at 0.01 µM [8] [%] | IC50 [9] [nM] | IC50 [10] [nM] | inhibition at 0.01 µM [11] [%] | IC50 [12] [nM] | inhibition at 0.01 µM [13] [%] | inhibition at 0.01 µM [14] [%] | IC50 [15] [nM] | inhibition at 0.01 µM [16] [%] | IC50 [17] [nM] | Compound | inhibition at 0.1 µM [1] [%] | inhibition at 0.1 µM [12] [%] | inhibition at 0.1 µM [9] [%] | other results
1 | 25 | < 2 | 94 | < 2 | < 2 | 20.6 | 7400 | 99 | 4 | 16 | 99 | 111 | 94 | 93 | 10 | 95 | 4 | CCc1c(F)ccc2cc(O)cc(N3CCc4c(nc(OC[C@@]56CCCN5C[C@H](F)C6)nc4N4CCCn5nc(N)c(Cl)c5C4)C3)c12 [Example 358, 4-(4-(2-amino-3-chloro-7,8-dihydro-4H-pyrazolo[1,5-a][1,4]diazepin-5(6H)-yl)-2-(((2R,7aS)-2-fluorohexahydro-1H-pyrrolizin-7a-yl)methoxy)-5,6-dihydropyrido[3,4-d]pyrimidin-7(8H)-yl)-5-ethyl-6-fluoronaphthalen-2-ol] | 90 | 50 | – | inhibition at 0.1 µM ([10]; NCI-H727, single point at 100 nM, 3 hrs compound incubation): 72%; inhibition at 0.1 µM ([17]; ASPC1, single point at 100 nM, 3 hrs compound incubation): 95%
2 | 15 | < 2 | 95 | < 2 | < 2 | 9.6 | 3850 | 98 | 1 | 3 | 99 | 42 | 95 | 95 | 5 | 97 | 1 | CCc1c(F)ccc2cc(O)cc(N3CCc4c(nc(OC[C@@]56CCCN5C[C@H](F)C6)nc4N4CCCn5nc(C(=O)N(CC)CC)cc5C4)C3)c12 [Example 390, N,N-diethyl-5-(7-(8-ethyl-7-fluoro-3-hydroxynaphthalen-1-yl)-2-(((2R,7aS)-2-fluorohexahydro-1H-pyrrolizin-7a-yl)methoxy)-5,6,7,8-tetrahydropyrido[3,4-d]pyrimidin-4-yl)-5,6,7,8-tetrahydro-4H-pyrazolo[1,5-a][1,4]diazepine-2-carboxamide] | – | – | 98 | inhibition at 0.1 µM [15]: 79%
3 | 17 | < 2 | 98 | < 2 | < 2 | 2 | 2230 | 99 | 1 | 5 | 100 | 40 | 99 | 98 | 8 | 100 | 2 | CCc1c(F)ccc2cc(O)cc(N3CCc4c(nc(OC[C@@]56CCCN5C[C@H](F)C6)nc4N4CCCn5nc(C(=O)N(C)C6CC6)c(C)c5C4)C3)c12 [Example 292, N-cyclopropyl-5-(7-(8-ethyl-7-fluoro-3-hydroxynaphthalen-1-yl)-2-(((2R,7aS)-2-fluorohexahydro-1H-pyrrolizin-7a-yl)methoxy)-5,6,7,8-tetrahydropyrido[3,4-d]pyrimidin-4-yl)-N,3-dimethyl-5,6,7,8-tetrahydro-4H-pyrazolo[1,5-a][1,4]diazepine-2-carboxamide] | 93 | 75 | 100 | inhibition at 0.1 µM [15]: 98%
